Data published in PMC6295861, “Privileged Structures and Polypharmacology within and between Protein Families” (ACS Medicinal Chemistry Letters, 2018).
Several values for one entry are separate records, joined by “and”; a condition that tells them apart may be missing. Equal entries are not always repeated. Blank lines part the entries; values can stand above or below the compound they belong to.

Key:
TAOK1 = target: T1, TAOK1 (Homo sapiens, UniProt Q7L7X3); test: Radio labeled filter binding kinase assay, TAOK1; type: biochemical; conditions: mean of duplicates
T1 sequence (Q7L7X3 1-1001): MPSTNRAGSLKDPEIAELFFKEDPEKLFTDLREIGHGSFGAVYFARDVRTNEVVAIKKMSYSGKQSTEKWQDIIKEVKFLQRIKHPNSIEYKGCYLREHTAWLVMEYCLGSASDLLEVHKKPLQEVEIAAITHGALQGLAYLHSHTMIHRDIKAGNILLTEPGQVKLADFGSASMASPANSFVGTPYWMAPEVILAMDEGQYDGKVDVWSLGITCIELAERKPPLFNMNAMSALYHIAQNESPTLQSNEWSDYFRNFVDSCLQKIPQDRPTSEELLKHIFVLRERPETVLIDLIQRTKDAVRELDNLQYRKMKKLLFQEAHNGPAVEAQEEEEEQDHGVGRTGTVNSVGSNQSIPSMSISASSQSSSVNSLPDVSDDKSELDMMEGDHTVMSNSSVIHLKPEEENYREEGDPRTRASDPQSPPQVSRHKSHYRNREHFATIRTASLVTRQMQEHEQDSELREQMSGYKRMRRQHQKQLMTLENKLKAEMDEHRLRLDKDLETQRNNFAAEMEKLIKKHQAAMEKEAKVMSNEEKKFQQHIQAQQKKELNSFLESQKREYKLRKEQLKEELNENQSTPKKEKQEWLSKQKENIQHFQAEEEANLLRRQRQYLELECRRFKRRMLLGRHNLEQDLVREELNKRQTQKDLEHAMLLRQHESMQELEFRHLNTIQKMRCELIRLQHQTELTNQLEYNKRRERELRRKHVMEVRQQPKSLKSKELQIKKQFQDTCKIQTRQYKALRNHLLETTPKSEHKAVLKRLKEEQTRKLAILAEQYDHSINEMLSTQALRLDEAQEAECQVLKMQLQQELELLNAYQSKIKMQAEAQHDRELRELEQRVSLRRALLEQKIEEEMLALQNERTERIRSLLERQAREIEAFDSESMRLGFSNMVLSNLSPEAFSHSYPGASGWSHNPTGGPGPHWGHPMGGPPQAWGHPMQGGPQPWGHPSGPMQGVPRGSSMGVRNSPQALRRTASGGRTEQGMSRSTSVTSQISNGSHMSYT

[1] = target: cyclin-dependent kinase 9 (CDK9); design: method as in PMID 27746890; conditions: cited from earlier work
HIPK2 = HIPK2 (Homo sapiens, UniProt Q9H2X6); test: Radio labeled filter binding kinase assay, HIPK2; type: biochemical
B-Raf (WT) = B-Raf (WT) (Homo sapiens, UniProt P15056); test: B-Raf Z'-LYTE cascade kinase assay (SelectScreen); type: biochemical; conditions: ATP 100 μM, points 1 and 2, listed as CCT363294-01
Sequence of B-Raf (WT) (P15056 whole entry): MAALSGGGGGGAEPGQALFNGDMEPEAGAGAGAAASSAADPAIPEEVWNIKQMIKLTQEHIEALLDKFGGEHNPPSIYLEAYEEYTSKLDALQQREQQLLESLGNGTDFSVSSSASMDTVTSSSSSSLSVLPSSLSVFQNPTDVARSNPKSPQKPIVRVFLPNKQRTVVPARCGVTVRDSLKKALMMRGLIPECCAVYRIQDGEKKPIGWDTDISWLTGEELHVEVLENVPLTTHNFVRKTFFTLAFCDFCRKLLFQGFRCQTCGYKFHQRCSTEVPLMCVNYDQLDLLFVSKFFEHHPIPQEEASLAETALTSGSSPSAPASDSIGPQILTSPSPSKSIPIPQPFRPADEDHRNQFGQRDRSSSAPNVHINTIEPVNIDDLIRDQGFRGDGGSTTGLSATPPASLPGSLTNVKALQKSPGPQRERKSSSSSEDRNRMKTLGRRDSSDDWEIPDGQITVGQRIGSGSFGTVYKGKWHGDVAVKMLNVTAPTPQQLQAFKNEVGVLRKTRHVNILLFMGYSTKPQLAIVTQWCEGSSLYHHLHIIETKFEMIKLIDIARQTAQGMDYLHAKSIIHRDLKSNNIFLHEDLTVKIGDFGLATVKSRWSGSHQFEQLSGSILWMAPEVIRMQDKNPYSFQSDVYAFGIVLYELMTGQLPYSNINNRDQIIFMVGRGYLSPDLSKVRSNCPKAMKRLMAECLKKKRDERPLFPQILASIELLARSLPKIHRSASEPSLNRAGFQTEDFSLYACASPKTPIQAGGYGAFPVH

Sequence of HIPK2 (Q9H2X6 whole entry): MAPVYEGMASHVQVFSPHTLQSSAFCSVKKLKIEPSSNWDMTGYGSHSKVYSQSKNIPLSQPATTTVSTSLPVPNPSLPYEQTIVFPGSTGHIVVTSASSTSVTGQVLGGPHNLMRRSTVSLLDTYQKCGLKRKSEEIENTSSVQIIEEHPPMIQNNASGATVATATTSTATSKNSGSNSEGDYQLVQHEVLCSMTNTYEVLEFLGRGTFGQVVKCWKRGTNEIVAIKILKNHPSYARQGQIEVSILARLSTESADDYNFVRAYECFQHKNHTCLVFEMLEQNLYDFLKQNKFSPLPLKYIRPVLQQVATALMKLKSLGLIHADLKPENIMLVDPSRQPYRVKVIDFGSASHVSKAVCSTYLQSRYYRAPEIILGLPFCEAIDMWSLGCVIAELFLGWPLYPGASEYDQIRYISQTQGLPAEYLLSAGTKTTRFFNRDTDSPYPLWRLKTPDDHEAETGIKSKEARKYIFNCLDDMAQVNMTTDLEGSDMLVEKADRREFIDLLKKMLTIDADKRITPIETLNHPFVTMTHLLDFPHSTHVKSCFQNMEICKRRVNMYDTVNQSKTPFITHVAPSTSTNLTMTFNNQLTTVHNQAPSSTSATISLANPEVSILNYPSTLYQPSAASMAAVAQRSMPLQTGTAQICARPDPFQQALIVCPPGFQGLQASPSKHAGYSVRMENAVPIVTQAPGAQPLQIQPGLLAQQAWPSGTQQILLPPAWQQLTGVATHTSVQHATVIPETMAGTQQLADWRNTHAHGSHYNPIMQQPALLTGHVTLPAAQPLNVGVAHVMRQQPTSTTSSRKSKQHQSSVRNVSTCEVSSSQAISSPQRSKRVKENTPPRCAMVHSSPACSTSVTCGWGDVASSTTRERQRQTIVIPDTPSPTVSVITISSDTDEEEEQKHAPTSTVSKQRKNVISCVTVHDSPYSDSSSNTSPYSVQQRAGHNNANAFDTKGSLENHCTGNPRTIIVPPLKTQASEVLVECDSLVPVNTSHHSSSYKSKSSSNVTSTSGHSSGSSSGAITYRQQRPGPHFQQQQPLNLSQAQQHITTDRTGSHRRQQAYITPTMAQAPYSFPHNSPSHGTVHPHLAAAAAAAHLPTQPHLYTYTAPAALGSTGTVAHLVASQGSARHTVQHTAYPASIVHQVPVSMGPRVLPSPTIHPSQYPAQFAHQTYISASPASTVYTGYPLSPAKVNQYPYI

- activity at 0.0003 µM (TAOK1; 0.0003 µM compound): 108%
- activity at 0.001 µM (TAOK1; 0.001 µM compound): 95%
- activity at 0.003 µM (TAOK1; 0.003 µM compound): 111%
- activity at 0.01 µM (TAOK1; 0.01 µM compound): 116%
- activity at 0.03 µM (TAOK1; 0.03 µM compound): 109%
- activity at 0.1 µM (TAOK1; 0.1 µM compound): 82%
- activity at 0.3 µM (TAOK1; 0.3 µM compound): 69%
- activity at 1 µM (TAOK1; 1 µM compound): 46%
- activity at 3 µM (TAOK1; 3 µM compound): 20%
- activity at 10 µM (TAOK1; 10 µM compound): 11%
- activity at 0.0003 µM (HIPK2; 0.0003 µM compound, duplicates): 99%
- HIPK2 % activity (HIPK2; 0.0003 µM compound, duplicates, listed as CCT250006, 0.0003 µM): 95%
- activity at 0.001 µM (HIPK2; 0.001 µM compound, duplicates): 94%
- HIPK2 % activity (HIPK2; 0.001 µM compound, duplicates, listed as CCT250006, 0.001 µM): 107%
- HIPK2 % activity (HIPK2; 0.003 µM compound, duplicates, listed as CCT250006, 0.003 µM): 95% and 121%
- activity at 0.01 µM (HIPK2; 0.01 µM compound, duplicates): 86%
- HIPK2 % activity (HIPK2; 0.01 µM compound, duplicates, listed as CCT250006, 0.01 µM): 88%
- activity at 0.03 µM (HIPK2; 0.03 µM compound, duplicates): 43%
- HIPK2 % activity (HIPK2; 0.03 µM compound, duplicates, listed as CCT250006, 0.03 µM): 39%
- activity at 0.1 µM (HIPK2; 0.1 µM compound, duplicates): 26%
- HIPK2 % activity (HIPK2; 0.1 µM compound, duplicates, listed as CCT250006, 0.1 µM): 35%
- activity at 0.3 µM (HIPK2; 0.3 µM compound, duplicates): 9%
- HIPK2 % activity (HIPK2; 0.3 µM compound, duplicates, listed as CCT250006, 0.3 µM): 11%
- activity at 1 µM (HIPK2; 1 µM compound, duplicates): 6%
- HIPK2 % activity (HIPK2; 1 µM compound, duplicates, listed as CCT250006, 1 µM): 5%
- HIPK2 % activity (HIPK2; 3 µM compound, duplicates, listed as CCT250006, 3 µM): 1% and 4%
- HIPK2 % activity (HIPK2; 10 µM compound, duplicates, listed as CCT250006, 10 µM): 1% and 5%
- IC50 (HIPK2; SI Table S5, unit inferred, one per duplicate curve, read-out: HIPK2 IC50, fitted values above the IC50(µM) line): 0.0272 µM
SMILES: c1cnc2ncn(-c3cc(Nc4ccc(OCCN5CCCCC5)cn4)ncn3)c2c1 [Compd 1]
- IC50 [1]: ≤ 0.003 µM

- % Inhibition BRAF (B-Raf (WT); 1.52 nM compound): -10% and -14%
- % Inhibition BRAF (B-Raf (WT); 13.7 nM compound): -17% and -16%
- % Inhibition BRAF (B-Raf (WT); 41.2 nM compound): -36% and -33%
- % Inhibition BRAF (B-Raf (WT); 123 nM compound): -22% and -28%
- % Inhibition BRAF (B-Raf (WT); 1110 nM compound): -4% and -8%
- % Inhibition BRAF (B-Raf (WT); 3330 nM compound): 6% and -3%
SMILES: CC(C)(C)N1CCN(Cc2ccc3cc(C(=O)Nc4cc(NC(=O)c5ccc6c(c5)OCCO6)ccc4Cl)ccc3n2)CC1 [Compd 8, 2-((4-(tert-butyl)piperazin-1-yl)methyl)-N-(2-chloro-5-(2,3-dihydrobenzo[b][1,4]dioxine-6-carboxamido)phenyl)quinoline-6-carboxamide]
